How the values were obtained:
[1] = cited from earlier work
[2] = in vivo; conditions: rhesus monkey, iv, 0.05 mg/kg
Experimental: (§1) This solution was injected into the saphenous vein of each monkey at a dose of 1 mL/Kg of bodyweight.
(§2) The serum from each blood sample was separated from other blood components via centrifugation, and then stored at -20° C. until the analysis described in Example 1(f)(1) was performed.
(§3) In separate clean test tubes, 1.5 mL of serum standard (Example 1(d)), serum sample (Examples 1(d) and (e)) and blank (Example 1(d)) was separately buffered with 150 microliters of a 0.42 M phosphate buffer, pH 7.2.
(§4) Each serum sample was then extracted with 4.5 mL of chloroform containing 0.1 M Di (2-ethylhexyl) phosphate (DEHP). The chloroform layer was separated into clean screw cap test tubes and mixed with 375 microliters of a 0.5 M HCl solution.
(§5) The aqueous extracts were then separated by centrifugation and analyzed by the HPLC-Fluorescence procedure described directly below.
(§6) The HPLC system consisted of a Waters Model 590 (Millipore Corporation, Bedford, Mass.) solvent delivery system equipped with a Waters Model 710 B Wisp auto injector, a Zorbax CN column (Dupont, 6 micron particles, 25 cm×4.6 mm internal diameter), Kratos (Kratos Analytical Instruments)Model 970 fluorescence detector (excitation 225 nm and emission 280 nm), and the Ingrad Data Analysis system (G. D. Searle & Co.). […] The mobile phase was pumped at a flow rate of 1.0 mL/minute. The injection volume was 100 microliters. The sensitivity of the method was 2.0 ng/mL.
(§7) The coefficient of variation associated with low (10 ng/mL) and high (80 ng/mL) quality control standard solutions were 4.5 and 3.4 percent, respectively.

[3] = Intravenous albuterol pharmacokinetics in Rhesus monkeys; conditions: 0.05 mg/kg
Experimental: as §1, §2, §3, §4, §5, §6, §7

AUC [2]: 84.2 ng·h/mL
Apparent volume of distribution ([3]; 50 mcg/Kg IV, Rhesus monkeys, n=4, mean): 1.9359 L/kg
Vd ([3]; rhesus monkey, serum, iv): 1.94 ± 0.0372 L/kg
SMILES: CC(C)(C)NCC(O)c1ccc(O)c(CO)c1 (centres unmarked) [albuterol]
Apparent volume of distribution in humans ([1]; human): 2.2 L/kg
Oral bioavailability ([1]; oral, extensive first pass metabolism, 'as low as'): ≥ 10%
